Measurements: PubChem BioAssay AID1671246

Target: Casein kinase I isoform gamma-1 (Homo sapiens) (UniProt Q9HCP0)
Assay: inhibition of human CK1 gamma 1 activity – biochemical, Z'-LYTE, FRET, protease-coupled, direct format, dose response (AID 1671246)
Details: recombinant CSNK1G1

Casein kinase I isoform gamma-1 (Homo sapiens), sequence (Q9HCP0 whole entry, looked up, canonical isoform): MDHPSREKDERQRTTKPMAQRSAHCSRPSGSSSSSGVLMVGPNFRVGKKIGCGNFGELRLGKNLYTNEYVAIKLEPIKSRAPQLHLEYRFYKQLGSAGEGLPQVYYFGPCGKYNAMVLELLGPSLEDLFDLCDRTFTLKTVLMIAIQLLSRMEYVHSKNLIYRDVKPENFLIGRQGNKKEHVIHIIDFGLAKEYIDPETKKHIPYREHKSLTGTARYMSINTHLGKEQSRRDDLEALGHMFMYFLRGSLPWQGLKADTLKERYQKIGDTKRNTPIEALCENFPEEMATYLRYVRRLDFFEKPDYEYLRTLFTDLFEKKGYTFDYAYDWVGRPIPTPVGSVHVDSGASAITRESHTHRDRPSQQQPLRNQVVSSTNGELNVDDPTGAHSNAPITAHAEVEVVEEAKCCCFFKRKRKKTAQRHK

## CN1C(=O)C2(Cc3cn(C45CC67SSC(CO)(C(=O)N6C4Nc4ccccc45)N(C)C7=O)c4ccccc34)SSC1(CO)C(=O)N2C (stereo unspecified)
  IC50: 109 nM
